# Source: US20050222041A1, “Ncam binding compounds” (ENKAM Pharmaceuticals A/S, priority 2001, published 2005)
# Several values for one entry are separate records, joined by “and”; a condition that tells them apart may be missing. Identical values can stand only once. Like-named read-outs stand apart in the source and are kept apart here. Ends that are not written are not given here.
# Columns and labels:
# [1] = tested on: NBP10-induced neurite outgrowth; experiment: Inhibition of NBP10d-induced neurite outgrowth by inhibitors of NCAM-dependent signal transduction; type: cell-based, rat
# PC12E2 cells = experiment: Fura-2 calcium imaging in PC12E2 cells; type: cell-based; settings: lower concentrations than 50 μM
# Method: The PC12-E2 cell line was a generous gift from Dr. Klaus Seedorf, Hagedorn Research Institute, Denmark. Cells were grown in DMEM supplemented with 5% v/v FBS and 10% v/v horse serum (HS). For calcium imaging, PC12E2 cells were dislodged mechanically by tapping and seeded at a density of 5-30,000 cells/cm^2 in 4 or 8 well LabTek chambered cover-slides (NUNC) with a growth surface of plastic coated with fibronectin (10 μg/ml) and grown for 1 to 5 days. In some cases, neuronal differentiation was induced by changing the medium to DMEM supplemented with 1% v/v FBS, 1% v/v HS and NGF (50 ng/ml) or FGF-2 (10 ng/ml).
# Cells were washed in HANK's solution comprising KCl (5.4 mM), NaCl (137 mM), NaHCO3 (2 mM), MgSO4 (0.8 mM), Na2HPO4 (0.27 mM), Glucose (5.6 mM), CaCl2 (1.25 mM), KH2PO4 (0.44 mM) and loaded with fura-2 acetomethyl ester (Fura-2 AM, 2 μM, Molecular Probes, Eugene, Oreg., USA) dissolved in Dimethyl Sulfoxide (DMSO) for 35 min at 20° C. in the dark. Hereafter, cells were washed four times and placed on the stage of an inverted Axiovert 100 TV microscope (Zeiss, Göttingen, Germany) equipped with an oil immersion UV objective (Zeiss Fluar 40×, 1.3 numerical aperture). […] Rmax was determined in situ using Fura-2 AM loaded cells in the presence of ionomycin (5 μM) and high extracellular calcium (10 mM). Values determined were: Rmax 9.0; Rmin 0.68; F380max/F380min 7.0. […]
# hippocampal cells = experiment: Cell aggregation in primary hippocampal aggregate cultures; type: cell-based, rat; settings: 24 h
# Method: A variety of suitable compounds have been discussed above. To test the function of the NCAM binding molecule, the inventors have established a simple cell culture system (aggregate cell cultures) that permits a quantitative evaluation of the effect of various ligands. Hippocampal cells are provided from rat embryos. The cells are grown in a defined medium and dissociated cells are seeded in microtiter plates. After 24 h, the amount of aggregates are counted. Compounds to be tested are added to the cell suspension immediately before seeding of the cells in micro-wells. When NCAM binding compounds are present during the aggregation of cells, smaller, but more numerous cell aggregates are seen when quantified 24 h after seeding of the cells. The inhibiting effect of the ligands results in a blockage of the formation of large aggregates from many small aggregates as the adhesion properties of NCAM are blocked. Thus, small but more numerous cell aggregates are seen in the presence of active ligands. Such an effect is due to the presence of different compounds of the invention during the aggregation of cells. The system allows for the examination of disaggregation of the treated cells.
# Dissociated hippocampal cells prepared from rat embryos gestational day 18 were seeded in microwell plates 50,000 cells in 15 μl of medium per well as previously described (Maar et al., 1997)(Rønn et al., 1999). All animals were handled in accordance with the national guidelines for animal welfare. Cells were grown in Neurobasal medium supplemented with B27, 20 mM HEPES, penicillin (100 U/ml), streptomycin (100 μg/ml) and 0.4% w/v bovine serum albumin. After 24 h in culture, the number of aggregates per well was determined. […] After 24 h, images of neurons were captured and analysed by means of computer-assisted microscopy as described (Rønn et al., 2000).
# An important function of NCAM is mediation of cell adhesion. […] The effect of NBP10 on cell aggregation was only quantified at low concentrations of the peptide (FIG. 1CD). […] Under these conditions, the number of aggregates could not be quantified. […]
# [2] = tested on: primary hippocampal neurons; experiment: Neurite outgrowth in dissociated cultures of primary hippocampal neurons on plastic; type: cell-based, rat; settings: for concentration of maximal effect on neurite outgrowth: bell shaped dose-response
# Method: Dissociated hippocampal cells prepared from rat embryos gestational day 18 were seeded in microwell plates 50,000 cells in 15 μl of medium per well as previously described (Maar et al., 1997)(Rønn et al., 1999). All animals were handled in accordance with the national guidelines for animal welfare. Cells were grown in Neurobasal medium supplemented with B27, 20 mM HEPES, penicillin (100 U/ml), streptomycin (100 μg/ml) and 0.4% w/v bovine serum albumin. After 24 h in culture, the number of aggregates per well was determined. For analysis of neurite outgrowth, 5,000 cells/well were seeded in 8 well LabTek Tissue Culture Chamber Slides with a growth surface of Permanox plastic. After 24 h, images of neurons were captured and analysed by means of computer-assisted microscopy as described (Rønn et al., 2000).
# The effect of NBP10 in dissociated cultures of primary hippocampal neurons grown on a plastic substratum were examined.
# [3] = target: NCAM on primary hippocampal neurons from rat embryos (rat) (UniProt P13596); experiment: cell-based or functional assay
# [4] = NBP10d 1 μM, inhibitor concentration not given
molecule,measurement,setting,value
COc1cccc(-c2cc(=O)c3ccccc3o2)c1N [PD98059],effect on NBP10-induced neurite outgrowth,"[1]; NBP10d 1 μM, inhibitor 10 μM",partially inhibited
Cc1ccc(-c2nn(C(C)(C)C)c3ncnc(N)c23)cc1 [PP1],effect on NBP10-induced neurite outgrowth,[1]; [4],partially inhibited
C[S+]([O-])c1ccc(-c2nc(-c3ccncc3)c(-c3ccc(F)cc3)[nH]2)cc1 (stereo not shown) [SB203580],effect on NBP10-induced neurite outgrowth,"[1]; NBP10d 1 μM, inhibitor 1 μM",partially inhibited
"CCN(CC)CCCCCCCCOC(=O)c1cc(OC)c(OC)c(OC)c1.Cl [TMB-8, 8-(N,N-diethylamino)octyl-3,4,5-trimethoxybenzoate hydrochloride]",effect on NBP10-induced neurite outgrowth,[1]; [4],complete inhibition
AKKMWKKTW (listed as Rattus rattus) [NBP10],effect on intracellular calcium,PC12E2 cells,only a fraction of the cells showed detectable increases in intracellular calcium
"AKKMWKKTW [NBP10m, monomeric NBP10 peptide]",concentration at which cultures had no distinct cell aggregates,hippocampal cells,200 µM
same,concentration inducing formation of small but distinct aggregates,hippocampal cells,60 µM
same,effect on cell aggregation,hippocampal cells,inhibited cell aggregation
same,shape of dose-response relationship for neurite outgrowth,[2],bell shaped
same,concentration of maximal effect on neurite outgrowth,[2],~100 µM
same,concentration of maximal effect on neurite outgrowth,[2]; listed as monomer,1.00 µM
same,effect on neurite outgrowth,"[2]; dose-response, 24 h, plastic substratum",stimulated neurite outgrowth
ω-conotoxin MVIIA,effect on NBP10-induced neurite outgrowth,[1],partial inhibition
"AKKMWKKTW (peptide, part only, also: four monomers on lysine dendrimer backbone) [NBP10 peptide dendrimer (four NBP10 monomers coupled to a lysine backbone)]","cell aggregation of hippocampal cells, concentration with effect",[3],1 µM and 2 µM
same,"neurite outgrowth of dissociated hippocampal neurons, concentration of maximal effect",[3],1 µM
same,"cell aggregation, potency against the peptide monomer",[3]; scale: times lower concentration than the monomer,50
